Reference: paper PMC11638703 (RSC Advances, 2024)
Where two headings read alike, the source gives them in different places.

Legend:
MCF-7 cells = assay: Cytotoxicity, MTT assay, MCF-7 cells; assay type: cell-based, human; details: from MCF-7 IC50
PIM-1 kinase [1] = target: T1, PIM-1 kinase (Homo sapiens, UniProt P11309); assay: PIM-1 kinase inhibitory assay; assay type: biochemical
HepG2 cells [2] = assay: Cytotoxicity, MTT assay, HepG2 cells; assay type: cell-based; details: for LLE (lipophilic efficiency): from HepG2 IC50
THLE2 cells = assay: Cytotoxicity, MTT assay, normal THLE2 cells; assay type: cell-based
caspase 9 = assay: Caspase 9 level by ELISA in treated HepG2 cells; assay type: cell-based, human; details: HepG2 treated at IC50 dose
caspase 3 = assay: Caspase 3 level by ELISA in treated HepG2 cells; assay type: cell-based, human; details: HepG2 treated at IC50 dose, 48 h, control 4.01
caspase 8 = assay: Caspase 8 level by ELISA in treated HepG2 cells; assay type: cell-based, human; details: HepG2 treated at IC50 dose, 48 h, control 55.01
HepG2 cells [3] = assay: Annexin V/PI staining flow cytometry; assay type: cell-based; details: HepG2, IC50 dose, 48 h
PIM-1 kinase [4] = target: T1, PIM-1 kinase; details: previously synthesized compound; ref [40]; cited from earlier work

T1 sequence (P11309 whole entry): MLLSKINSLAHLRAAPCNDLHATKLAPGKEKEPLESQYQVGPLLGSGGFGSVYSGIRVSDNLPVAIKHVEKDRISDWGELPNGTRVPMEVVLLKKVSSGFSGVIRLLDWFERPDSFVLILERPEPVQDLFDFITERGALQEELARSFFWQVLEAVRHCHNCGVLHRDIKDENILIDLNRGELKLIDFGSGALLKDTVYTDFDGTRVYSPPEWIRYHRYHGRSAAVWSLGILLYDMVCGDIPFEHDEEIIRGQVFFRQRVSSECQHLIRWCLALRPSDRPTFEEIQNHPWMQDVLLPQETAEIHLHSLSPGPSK

Row | SMILES | LLE (lipophilic efficiency) (MCF-7 cells) | % of PIM-1 inhibition (PIM-1 kinase [1]) [%] | IC50 (PIM-1 kinase [1]) [nM] | LLE (lipophilic efficiency) (HepG2 cells [2]) | also measured
1 | CCOC(=O)Cn1c(-c2ccc(Cl)cc2)cc(-c2ccc(O)c(OC)c2)c(C#N)c1=O [Compound 5, Ethyl 2-(6-(4-chlorophenyl)-3-cyano-4-(4-hydroxy-3-methoxyphenyl)-2-oxopyridin-1(2H)-yl)acetate] | 2.65 | 83.4 ± 2.3 | 64.6 ± 0.2 | 2.93 | 
2 | COc1cc(-c2cc(-c3ccc(Cl)cc3)n(CN(C)C)c(=O)c2C#N)ccc1O [Compound 8, 6-(4-Chlorophenyl)-1-((dimethylamino)methyl)-4-(4-hydroxy-3-methoxyphenyl)-2-oxo-1,2-dihydropyridine-3-carbonitrile] | 2.97 |  |  | 2.76 | 
3 | COc1cc(-c2cc(-c3ccc(Cl)cc3)n(CC(=O)NN)c(=O)c2C#N)ccc1O [Compound 9, 2-(6-(4-Chlorophenyl)-3-cyano-4-(4-hydroxy-3-methoxyphenyl)-2-oxopyridin-1(2H)-yl)acetohydrazide] | 5.41 | 98.8 ± 1.9 | 8.4 ± 0.2 | 5.60 | maximum cell growth inhibition (THLE2 cells): 13%; selectivity for caspase-9 compared to caspase-3 and caspase-8 (caspase 9): ~2.6 fold; Concentration Caspase 9 (caspase 9; 48 h, ELISA, control 43.33): 112.6 ng/mL; Concentration Caspase 3 (caspase 3): 9.8 ng/mL; Concentration Caspase 8 (caspase 8): 74.4 ng/mL; early apoptosis (HepG2 cells [3]): 15.2%; late apoptosis (HepG2 cells [3]): 37.5%; necrosis cell death (HepG2 cells [3]): failed to enhance necrosis cell death; total apoptotic cell death vs untreated control (HepG2 cells [3]): 175 times; total apoptosis (HepG2 cells [3]; untreated 0.30%): 52.7%; percentage of cell growth (inhibition) (HepG2 cells [2]; HepG2, maximal concentration): 94%
4 | COc1cc(-c2cc(-c3ccc(Cl)cc3)n(CC(=O)n3nc(C)cc3C)c(=O)c2C#N)ccc1O [Compound 10, 6-(4-Chlorophenyl)-1-(2-(3,5-dimethyl-1H-pyrazol-1-yl)-2-oxoethyl)-4-(4-hydroxy-3-methoxyphenyl)-2-oxo-1,2-dihydropyridine-3-carbonitrile] |  | 87.6 ± 3.2 | 34.6 ± 0.12 |  | 
5 | N#Cc1cnc2ncncc2c1 [Pyrido[2,3-d] pyrimidine-6-carbonitrile] |  |  |  |  | % of PIM-1 inhibition (PIM-1 kinase [4]): 97.8 ± 1.8%
